# Measured values taken from patent US20200345725A1, “Methods and Compositions for Treating Cancer” (Omeros Corporation, priority 2019, published 2020).
# Marks after values point to notes of the source that are not given here.
# Tested on: human PBMCs
# Assay: Th1 cytokines in supernatants of stimulated human PBMC, GPR174 inhibitor with adenosine pathway inhibitors (Examples 15, 18-22)
# Assay type: cell-based
# Details: for IFN-γ, ratio relative to vehicle control (MRS) / IL-2, ratio relative to vehicle control (MRS column) / TNF, ratio relative to vehicle control (MRS column): MRS-1754 1 μM added to the agent(s) of the label, label MRS = MRS alone; for IFN-γ, ratio relative to vehicle control (Veh column) / IL-2, ratio relative to vehicle control (Veh column) / TNF, ratio relative to vehicle control (Veh column): donor 6, no MRS, Cmpd 10 1, ZM 0.1, PBF 0.1, SCH 0.2 μM, ADA 0.75 μg/mL
# Procedure, shortened: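 Human donor PBMCs (1×10^6 cells/well) were stimulated with 1 µg/mL anti-CD3 (UCHT1) plus 0.1 µg/mL anti-CD28 (CD28.2) for 24 h with test agents. IFN-γ, IL-2, TNF and GM-CSF in supernatants were measured by ELISA, Legendplex or MSD. Fold changes were compared by one-way ANOVA with Tukey correction.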
# [1] = donor 3, PBF-509 0.2 μM, alone (label PBF) or with Cmpd 10 1 μM (label Cmpd 10)
# [2] = donor 3, PBF-509 0.2 μM, alone (label PBF) or with Cmpd 10 1 μM (label Cmpd 10), listed as Cmpd 10
# [3] = donor 3, ZM-241385 0.2 μM, alone (label ZM) or with Cmpd 10 1 μM (label Cmpd 10)
# [4] = donor 3, ZM-241385 0.2 μM, alone (label ZM) or with Cmpd 10 1 μM (label Cmpd 10), listed as Cmpd 10
# [5] = donor 7, high and low concentrations, ZM 0.1 μM
# [6] = donor 7, no ZM, 0.3 μM (compound 20: 3 μM)
# [7] = donor 7, no ZM, 1 μM (compound 20: 10 μM)
# [8] = donor 7, with ZM-241385 0.1 μM, 0.3 μM (compound 20: 3 μM)
# [9] = donor 7, with ZM-241385 0.1 μM, 1 μM (compound 20: 10 μM), label ZM = ZM alone
compound,measurement,setting,value
CC1CCN(c2cc(N3CCN(S(=O)(=O)c4ccccc4)CC3)c([N+](=O)[O-])cc2F)CC1 [compound 10],IFN-γ fold-change relative to vehicle control,"donor 3, Cmpd 10 1 μM alone",1.2 fold
same,IL-2 fold-change relative to vehicle control,"donor 3, Cmpd 10 1 μM alone",1.1 fold
same,TNF fold-change relative to vehicle control,"donor 3, Cmpd 10 1 μM alone",1.5 fold
same,TNF fold-change relative to vehicle control,"donor 3, Cmpd 10 1 μM alone, listed as Cmpd 10",1.5* fold
same,"IFN-γ, ratio relative to vehicle control (MRS)",donor 3,2.2* fold
same,"IL-2, ratio relative to vehicle control (MRS column)",donor 3,4.3 fold
same,"TNF, ratio relative to vehicle control (MRS column)",donor 3,4.6* fold
same,"IL-2, ratio relative to vehicle control (MRS column)","donor 3, listed as Cmpd 10",4.3* fold
same,IFN-γ fold-change relative to vehicle control,[1],1.8 fold
same,IL-2 fold-change relative to vehicle control,[1],1.6 fold
same,TNF fold-change relative to vehicle control,[1],2.9 fold
same,IFN-γ fold-change relative to vehicle control,[2],1.8* fold
same,IL-2 fold-change relative to vehicle control,[2],1.6* fold
same,TNF fold-change relative to vehicle control,[2],2.9* fold
same,IFN-γ fold-change relative to vehicle control,[3],2.5 fold
same,IL-2 fold-change relative to vehicle control,[3],2.3 fold
same,TNF fold-change relative to vehicle control,[3],4.6 fold
same,IFN-γ fold-change relative to vehicle control,[4],2.5* fold
same,IL-2 fold-change relative to vehicle control,[4],2.3* fold
same,TNF fold-change relative to vehicle control,[4],4.6* fold
same,"IFN-γ, MRS/Veh: ratio in the presence vs. the absence of MRS-1754",donor 6,1.1
same,"IL-2, MRS/Veh: ratio in the presence vs. the absence of MRS-1754",donor 6,1.4*
same,"TNF, MRS/Veh: ratio in the presence vs. the absence of MRS-1754",donor 6,1.4*
same,"IFN-γ, ratio relative to vehicle control (Veh column)",,did not significantly increase
same,"IL-2, ratio relative to vehicle control (Veh column)",,1.7 fold
same,"TNF, ratio relative to vehicle control (Veh column)",,1.4 fold
same,"IFN-γ, ratio relative to vehicle control (Veh column)",listed as Cmpd 10,1.2 fold
same,"IL-2, ratio relative to vehicle control (Veh column)",listed as Cmpd 10,1.7* fold
same,"TNF, ratio relative to vehicle control (Veh column)",listed as Cmpd 10,1.4* fold
same,"IFN-γ, ratio relative to vehicle control (MRS)",donor 6,1.3* fold
same,"IL-2, ratio relative to vehicle control (MRS column)",donor 6,1.4 fold
same,"TNF, ratio relative to vehicle control (MRS column)",donor 6,2.1 fold
same,"IL-2, ratio relative to vehicle control (MRS column)","donor 6, listed as Cmpd 10",2.3* fold
same,"TNF, ratio relative to vehicle control (MRS column)","donor 6, listed as Cmpd 10",2.1* fold
same,synergy with ZM on GM-CSF (greater than the sum of the increases with each inhibitor alone),[5],synergized with ZM
same,synergy with ZM on IFN-γ (greater than the sum of the increases with each inhibitor alone),[5],synergized with ZM
same,synergy with ZM on IL-2 (greater than the sum of the increases with each inhibitor alone),[5],synergized with ZM
same,synergy with ZM on TNF (greater than the sum of the increases with each inhibitor alone),[5],synergized with ZM
same,"GM-CSF, ratio relative to vehicle control",[6],3.6*
same,"IFN-γ, ratio relative to vehicle control",[6],2.1*
same,"IL-2, ratio relative to vehicle control",[6],1.7*
same,"TNF, ratio relative to vehicle control",[6],2.2*
same,"GM-CSF, ratio relative to vehicle control",[7],3.1*
same,"IFN-γ, ratio relative to vehicle control",[7],2.2*
same,"IL-2, ratio relative to vehicle control",[7],1.6*
same,"TNF, ratio relative to vehicle control",[7],2.2*
same,"GM-CSF, ratio relative to vehicle control",[8],6.2*
same,"IFN-γ, ratio relative to vehicle control",[8],3.7*
same,"IL-2, ratio relative to vehicle control",[8],2.0*
same,"TNF, ratio relative to vehicle control",[8],3.6*
same,"GM-CSF, ratio relative to vehicle control",[9],5.9*
same,"IFN-γ, ratio relative to vehicle control",[9],3.7*
same,"IL-2, ratio relative to vehicle control",[9],2.2*
same,"TNF, ratio relative to vehicle control",[9],3.8*
